{
  "source": "paper PMC5696599",
  "about": "“Confirming a Role for α9nAChRs and SK Potassium Channels in Type II Hair Cells of the Turtle Posterior Crista” (Frontiers in Cellular Neuroscience, 2017)",
  "target": "T1, α9*nAChR (alpha9-containing nicotinic ACh receptor) (Trachemys scripta, UniProt Q3L0X1)",
  "T1 construct": "gene CHRNA9; native receptor in type II hair cells, intact split-epithelial posterior crista; read-out through coupled SK potassium current",
  "T1 sequence (Q3L0X1 28-490)": "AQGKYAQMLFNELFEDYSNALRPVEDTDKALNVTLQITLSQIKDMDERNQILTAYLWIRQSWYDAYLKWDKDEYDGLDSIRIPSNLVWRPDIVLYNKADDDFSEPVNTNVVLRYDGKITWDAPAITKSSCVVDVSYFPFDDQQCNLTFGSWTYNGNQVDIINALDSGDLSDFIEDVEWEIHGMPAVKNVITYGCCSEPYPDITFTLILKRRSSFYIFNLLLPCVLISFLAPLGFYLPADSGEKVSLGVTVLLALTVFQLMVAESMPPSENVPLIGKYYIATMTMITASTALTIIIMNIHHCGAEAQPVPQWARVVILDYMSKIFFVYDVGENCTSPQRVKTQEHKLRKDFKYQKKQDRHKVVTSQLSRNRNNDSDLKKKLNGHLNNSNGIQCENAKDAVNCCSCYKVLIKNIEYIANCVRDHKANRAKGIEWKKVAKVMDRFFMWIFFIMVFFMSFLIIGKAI",
  "T1 sequence (UPI001552A461 25-505 partner)": "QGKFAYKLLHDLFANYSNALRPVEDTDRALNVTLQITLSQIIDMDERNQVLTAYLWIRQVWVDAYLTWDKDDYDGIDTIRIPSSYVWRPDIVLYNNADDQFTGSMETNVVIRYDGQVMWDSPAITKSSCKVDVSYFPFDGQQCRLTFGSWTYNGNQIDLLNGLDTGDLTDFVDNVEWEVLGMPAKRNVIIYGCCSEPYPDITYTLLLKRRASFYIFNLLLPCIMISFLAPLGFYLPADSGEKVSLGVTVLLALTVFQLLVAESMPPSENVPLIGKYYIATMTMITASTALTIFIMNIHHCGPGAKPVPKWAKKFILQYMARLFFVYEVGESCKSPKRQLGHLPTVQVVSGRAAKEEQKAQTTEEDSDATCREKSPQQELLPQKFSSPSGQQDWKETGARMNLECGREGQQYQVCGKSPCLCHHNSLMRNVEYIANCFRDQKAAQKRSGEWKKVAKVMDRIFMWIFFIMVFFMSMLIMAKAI",
  "assay": "whole-cell patch clamp of type II hair cells, peak ACh-sensitive outward current, Hill fit",
  "type": "cell-based",
  "conditions": "agonist; coupled SK current read-out at −17 mV; intact epithelium with acetylcholinesterase and diffusion barriers; pH 7.6; 21–25°C",
  "data": [
    {"smiles": "CC(=O)OCC[N+](C)(C)C", "note": "[acetylcholine]", "values": [
      {"measurement": "EC50", "result": 76, "unit": "µM"}
    ]}
  ]
}
